According to patent publication US20130253048A1, “Pharmaceutical Composition for Promoting Osteogenesis Containing Axial-equatorial Aryl-oriented Furofuran-type Lignan, and Pharmaceutical Preparation, Functional Food Product, and Health Food Product Comprising Composition” (ERINA CO., INC., priority 2010, published 2013):

Experiments:
[1] = test system: ovariectomized mouse (type I osteoporosis model animal); assay: Change of bone mass in type I osteoporosis model animal (ovariectomized mice, dosing 3 months, femur pQCT); assay type: in vivo; settings: for Bone density Cancellous bone, relative value / Bone density whole bone, relative value / Cortical bone Bone density, relative value / Cortical bone Bone thickness, relative value / Cortical bone adventitia diameter, relative value / Cortical bone lining membrane diameter, relative value / Polar axis bone strength, relative value (Table 3): Sham group = 100; for Polar axis strength (polar coordinates strength): SSI from pQCT; for Bone density Cancellous bone / Bone density whole bone: right femur, pQCT
Text: Female Slc: ddy mice of 4 weeks old (Japan SLC, Inc.) was operated with ovariectomy to use as a type I osteoporosis model animal. Also, in order to delete the affection by invasion, a group which is operated without ovariectomy (Sham operation) is set (Sham group). These were the […] model animals.
Animal bedding were changed twice a week and always to use all fresh one, CRF-1 (Oriental Yeast Co., Ltd.) is fed as feed and deionized water as drinking water were freely given. Their body weights were weighed twice a week by the end of the experiment.
Fargesin was dissolved in 30 mL of a solution (it is referred to as “TD solution”, hereinbelow) containing 4% dimethyl sulfoxide (it is referred to as “DMSO”, hereinbelow) and 4% TWEEN 80 (both were purchased from Wako Pure Chemical Industries, Ltd.) so as that a dosage amount of fargesin becomes 20 mg/kg body wt/day, or […].
After the surgical operation, the mice were adapted to the circumstances for 5 days, and then they were divided to the Sham group, the negative control, the positive control group, and the test substance administration group (6 mice per group). The ovariectomized mice were used for the negative control group, the positive control group, and the test substance administration group.
Fargesin solution was daily administrated to the ovariectomized mice in the test group at the dosage of 20 mg/kg body wt/day (it is referred to as “F20 group”, hereinbelow) or 100 mg/kg body wt/day (it is referred to as “F100 group”, hereinbelow) for 3 month p.o.
In order to study effects of fargesin on the bone, the femur, the largest long bone, was used.
The mice in each group were killed by the cervical dislocation under diethyl ether anesthesia. Their right femurs were excised with muscles, and the muscles were removed from the femur after the excision. Lengths of the excised bones from the mice in the groups were measured, and they were dipped in 70% ethanol to be fixed.
In FIG. 3, the bone was shown schematically. The long bone (tubular bone) was composed of two thick and rounded ends (epiphysis), and thin and long part between them (a shaft). The bone extends to longitudinal direction, depending on the growth of a plate-shape epiphyseal cartilage (a growth plate) between the epiphysis and the shaft. The region of 1 mm proximal side from the A position for a measurement was set to that from 1 mm proximal region (epiphysis) from the distal growth plate as decided as the measurement region.
The bone density was measured by using the peripheral quantitative computed tomography (pQCT, XCT Research SA+, Stratec Medizintechnik GmbH, Merk Ltd) (FIG. 3B). The measurement was performed under the conditions: a diameter of 90 mm, a voxel size of 0.12 mm, a CT speed of 10 mm/sec, and a block number of 1. Bone mineral content (mg/mm), bone density (mg/cm^3), and cross section of the bone (mm^2) of the entire of tomographic images (whole bone area) were calculated.
Next, the area of the cancellous bone was extracted (peel mode 20), and then the bone mineral amount (mg/mm), the section of the bone (mm^2), and the bone density (mg/cm^3) were calculated. Further to the cortical bone, the bone mineral amount (mg/mm), the bone density (mg/cm^3), the section of the bone (mm^2), a bone thickness (mm), the periosteum perimeter of the cortical bone (mm), and the endosteum perimeter of the cortical bone (mm) were calculated.
Based on the bone diameter and the bone density measured by the pQCT, SSI was calculated. SSI is composed of Polar SSI (torsion strength in polar coordination), X-axis SSI (strength in X axis, three-point bending strength), and Y-axis SSI (Y axis strength, three-point lateral bending strength), and it is expressed by the following general equation.
Wherein, Z is the coefficient of the cross section (mm^3), CBD is the bone density of the cortical bone (mg/cm^3), and ND is the physiological bone density (1200 mg/cm^3). The coefficient Z is shown as the following equation.

[2] = test system: mouse monocyte macrophage type cells under RANKL stimulation; settings: cited from earlier work
[3] = F20 group: 20 mg/kg body wt/day p.o.
[4] = F100 group: 100 mg/kg body wt/day p.o.
[5] = OVX mice, F20 group: 20 mg/kg body wt/day p.o., 3 months
[6] = OVX mice, F100 group: 100 mg/kg body wt/day p.o., 3 months

## COc1ccc([C@@H]2OC[C@H]3[C@@H]2CO[C@@H]3c2ccc3c(c2)OCO3)cc1OC [fargesin, Fargesin]
[1]; [3]
  Bone density Cancellous bone, relative value: 123.0
  Bone density whole bone, relative value: 100.8
  Cortical bone Bone density, relative value: (97.4)
  Cortical bone Bone thickness, relative value: (91.1)
  Cortical bone adventitia diameter, relative value: (105.3)
  Cortical bone lining membrane diameter, relative value: (110.8)
  Polar axis bone strength, relative value (Table 3): 104.2
[1]; [4]
  Bone density Cancellous bone, relative value: 131.3
  Bone density whole bone, relative value: 102.2
  Cortical bone Bone density, relative value: (95.6)
  Cortical bone Bone thickness, relative value: (102.5)
  Cortical bone adventitia diameter, relative value: (104.2)
  Cortical bone lining membrane diameter, relative value: (104.9)
  Polar axis bone strength, relative value (Table 3): 71.6
[1]; [5]
  Cortical bone Bone density: 859.483 ± 2.479 mg/mL
  Cortical bone Bone thickness: 0.329 ± 0.026 mm
  Cortical bone adventitia diameter: 8.4160 ± 0.116 mm
  Cortical bone lining membrane diameter: 6.347 ± 0.160 mm
  Polar axis bone strength (Table 3): 2.005 ± 0.154 mm^3
  bone mineral mass, cancellous bone: 0.855±0.067 mg/mm
  bone mineral mass, cortical bone: 2.087±0.160 mg/mm
  bone mineral mass, whole bone: 3.638±0.164 mg/mm
  cross section area of the bone, cortical bone: 2.427±0.185 mm^2
  cross section area of the bone, whole bone: 5.643±0.152 mm^2
  Polar axis strength (polar coordinates strength): 1.615±0.090 mm^3
  Bone density Cancellous bone: 431.283 ± 30.506 mg/mL
  Bone density whole bone: 644.367 ± 20.387 mg/mL
[1]; [6]
  Cortical bone Bone density: 843.55 ± 8.714 mg/mL
  Cortical bone Bone thickness: 0.370 ± 0.051 mm
  Cortical bone adventitia diameter: 8.3300 ± 0.278 mm
  Cortical bone lining membrane diameter: 6.010 ± 0.313 mm
  Polar axis bone strength (Table 3): 1.265 ± 0.147 mm^3
  bone cross section, whole bone: 5.550±0.351 mm^2
  bone mineral mass, cancellous bone: 0.920±0.102 mg/mm
  bone mineral mass, cortical bone: 2.240±0.320 mg/mm
  bone mineral mass, whole bone: 3.660±0.326 mg/mm
  cross section area of the bone, cortical bone: 2.640±0.361 mm^2
  Polar axis strength (polar coordinates strength): 1.666±0.087 mm^3
  Bone density Cancellous bone: 460.500 ± 36.222 mg/mL
  Bone density whole bone: 653.300 ± 29.083 mg/mL
[2]; RANKL stimulation
  phosphorylation of p38 and I-κB by RANKL stimulation: inhibits the phosphorylation
[2]; mouse monocyte macrophage type cells under RANKL stimulation, or marrow monocytoid cells in culture
  tartrate-resistant acid phosphatase activities: dose-dependently inhibits
